Earlier results as cited in patent US20250049933A1, “DRUG DELIVERY SYSTEM FOR TARGETED CANCER TREATMENT” (priority 2024, published 2025).

How the values were obtained:
[1] = in vivo

Nc1ccn([C@@H]2O[C@H](CO)[C@@H](O)C2(F)F)c(=O)n1 [GEM, gemcitabine]
oral bioavailability [1]: 9% | overall survival (pancreatic cancer): 6.7 months
